These results are taken from ChEMBL document CHEMBL1201862, “PubChem BioAssay data set” (2004).

Assay in all cases: growth of human tumour cells (NCI), 48 h
The test system of assay [1] is M14.
The subject of assay [2] is OVCAR-4.
Assay [3] concerns UO-31.
For assay [4], the system named is OVCAR-5.
Assay [5] relates to RPMI-8226.
Assay [6] relates to OVCAR-8.
In assay [7] the test system is TK-10.
The subject of assay [8] is A498.
In assay [9] the test system is SK-OV-3.
In assay [10] the test system is HCT-116.
Assay [11] has as its system SK-MEL-2.
For assay [12], the system named is RXF 393.
Assay [13] relates to HOP-62.
In assay [14] the test system is NCI-H23.
Assay [15] deals with Malme-3M.
Assay [16] relates to HCC 2998.
Assay [17] has as its system IGROV-1.
The subject of assay [18] is HCT-15.
Assay [19] has as its system SR.

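Where inhibition never reached the appropriate level, the endpoint shown equals the highest concentration tested. Otherwise, values were interpolated linearly from a five-concentration, 48-hour dose response in 96-well plates. GI50 is the concentration that inhibits growth by half.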 Active and inactive are the calls of the source. Cut-off read from the data, not from the text of the source: active = GI50 up to about 1.1 µM and inactive = higher.

Take `CCOC(=O)C1=C(Nc2ccccc2)OC/C1=N\NC(=O)Cc1ccccc1`: the GI50 in assay [1], in assay [2], in assay [3], in [4], in [5] and in assay [6] was > 50 µM (inactive) each time. Besides, the GI50 in assay [7], in assay [8], in assay [9], in assay [10], in assay [11] and in assay [12] was > 50 µM (inactive) in each case. In addition, the GI50 in assay [13], in [14], in assay [15], in assay [16] and in assay [17] was > 50 µM (inactive) each time.
With `CSc1nc(NC(=O)O)c(N(C(C)=O)C(=O)O)c(=O)n1C`, the GI50 in [1], in assay [2], in assay [3], in [4], in assay [5] and in [6] was > 100 µM (inactive) throughout. The GI50 in [8] is > 100 µM (inactive); in [10], > 100 µM (inactive); in assay [11] it was > 100 µM (inactive); in assay [18], more than 100 µM; in assay [12], > 100 µM (inactive); in assay [15], > 100 µM (inactive). Moreover, the GI50 in assay [16] and in [17] was > 100 µM (inactive) throughout.
As for `CCCCN(CCCC)C(=O)C(=O)C(C#N)c1ccc(C)cc1` (stereo not drawn), the GI50 in assay [1], in [2], in assay [3], in assay [4], in assay [5] and in [6] was > 100 µM (inactive) in each case. The GI50 in assay [7] was > 100 µM (inactive); in assay [8], > 100 µM (inactive); in assay [10], > 100 µM (inactive); in [11], > 100 µM (inactive); in assay [18], more than 100 µM; in assay [12], > 100 µM (inactive). Also, the GI50 in assay [13], in [14], in [15], in assay [16] and in [17] was > 100 µM (inactive) each time.
With `CN1C(=O)NC2(O)c3ccccc3C(=O)C12O` (stereo not drawn), the GI50 in assay [19], in [1], in assay [2], in assay [3], in assay [4] and in [5] was > 100 µM (inactive) throughout. Moreover, the GI50 in assay [6] is > 100 µM (inactive); in assay [7], > 100 µM (inactive); in assay [9] it was > 100 µM (inactive); in [10], > 100 µM (inactive); in [11], > 100 µM (inactive); in assay [18], more than 100 µM. In addition, the GI50 in assay [14], in [15] and in [17] was > 100 µM (inactive) in each case.
In the case of `CC1(C)c2ccccc2C(C)(C)C(C(=O)Nc2ccccc2)C1C(=O)O` (stereo not drawn), the GI50 in [1], in assay [3], in [4], in [5], in assay [6] and in assay [7] was > 100 µM (inactive) throughout. The GI50 in assay [8] was > 100 µM (inactive); in assay [9], > 100 µM (inactive); in [10] it was 95.1 µM (inactive); in [11] it was > 100 µM (inactive); in assay [12], > 100 µM (inactive); in [13] it was > 100 µM (inactive). Besides, the GI50 in [14], in assay [15] and in assay [16] was > 100 µM (inactive) throughout.
For the compound `CC(=O)O[C@H]1CC[C@@]2(C)C(=CC[C@@H]3C2CC[C@]2(C)C(=O)NC(=O)CC32)C1` (stereo partly drawn), the GI50 in assay [1], in assay [2], in [3], in [4], in assay [6] and in assay [7] was > 100 µM (inactive) each time. Also, the GI50 in assay [8] was > 100 µM (inactive); in assay [9], > 100 µM (inactive); in assay [10], > 100 µM (inactive); in [11], > 100 µM (inactive); in assay [18], 68.4 µM; in assay [12], 35.5 µM (inactive). The GI50 in [13], in assay [14], in [15], in [16] and in assay [17] was > 100 µM (inactive) throughout.
With `COC(=O)C1=C2CCC(=O)[C@@]2(C)C(OC(C)=O)C=CC1` (stereo partly drawn), the GI50 in assay [1] was 88.9 µM (inactive); in assay [2], > 100 µM (inactive); in [3] it was > 100 µM (inactive); in assay [4] it was > 100 µM (inactive); in assay [5], 34.6 µM (inactive); in [6] it was 43 µM (inactive). The GI50 is > 100 µM (inactive) in assay [7]; > 100 µM (inactive) in assay [8]; > 100 µM (inactive) in assay [9]; 24.5 µM (inactive) in assay [10]; 71.6 µM (inactive) in assay [11]; 29.5 µM in assay [18]. Further, the GI50 in assay [12] is > 100 µM (inactive); in [13], > 100 µM (inactive); in assay [14], 76.9 µM (inactive); in [15], > 100 µM (inactive); in assay [16], > 100 µM (inactive); in assay [17], > 100 µM (inactive).
`CCCCc1ccc(-n2c3nc(=O)n(C)c(=O)c-3nc3ccccc32)cc1`: the GI50 in assay [1] was 7.89 µM (inactive); in assay [2], 8 µM (inactive); in [3], 12.5 µM (inactive); in [4], 18.1 µM (inactive); in [5], 13.7 µM (inactive); in [6] it was 7.57 µM (inactive). For the same compound, the GI50 in [7] was 13.9 µM (inactive); in assay [8], 18.7 µM (inactive); in [9] it was 37.7 µM (inactive); in assay [10] it was 12.3 µM (inactive); in assay [11] it was 10.9 µM (inactive); in [18], 6.35 µM. Also, the GI50 is 18.4 µM (inactive) in [12]; 18.2 µM (inactive) in assay [13]; 2.37 µM (inactive) in assay [14]; 7.6 µM (inactive) in assay [15]; 4.36 µM (inactive) in assay [16]; 13.6 µM (inactive) in assay [17].
Turning to `Cc1ccc(S(=O)(=O)NC(=O)Nc2nc(Cl)cc(Cl)n2)cc1`, the GI50 in assay [1], in assay [2], in assay [3], in assay [4], in [5] and in assay [6] was > 100 µM (inactive) each time. In addition, the GI50 in assay [7], in [8], in assay [9], in assay [10], in assay [11] and in assay [12] was > 100 µM (inactive) each time. Besides, the GI50 was > 100 µM (inactive) in assay [13]; > 100 µM (inactive) in [14]; > 100 µM (inactive) in [15]; 28.3 µM (inactive) in [16]; > 100 µM (inactive) in [17].
